pEC50: −log10 of the molar value. Like-named read-outs stand apart in the source and are kept apart here.
Assays:
KKAy mice = test: Blood glucose and blood lipid (triglyceride) lowering action in mice; format: in vivo; conditions: Mus musculus, 4TO7, po, 4 to 7 days; for response vs control in vivo at 0.01 %: 0.01% in powder diet; for response vs control in vivo at 0.03 %: 0.03% in powder diet
Source text: The test compound was mixed with a powder diet (CE-2, CLEA JAPAN, INC.) at a proportion of 0.01% (0.03% for the compounds of Examples 1, 2, 12, 81, 94, 96, 129 and 143, and 0.005% for the compounds of Examples 28, 30 and 37) and freely given to KKAy mice (9 to 14-week-old, 5 mice per group) which are obesity non-insulin-dependent diabetes (type-2 diabetes) models, for 4 to 7 days. During this period, water was freely given. The blood was drawn from the orbital venous plexus. Glucose and triglyceride in the plasma separated from the blood were quantitated using L Type Wako Glu2 (Wako Pure Chemical Industries, Ltd.) and L Type Wako TG·H (Wako Pure Chemical Industries, Ltd.), respectively, according to an enzyme method.

PPARγ-RXRα heterodimer = target: T1, PPARγ-RXRα heterodimer (Homo sapiens, UniProt P37231); test: PPARγ-RXRα heterodimer ligand activity (luciferase reporter, PPARγ:RXRα:4ERPP/CHO-K1 cells); format: cell-based; conditions: concentration showing 50% of the maximum luciferase induction rate; CHO-K1 reporter cells, one day incubation
T1 construct: expressed in transfected cells; host or cells: CHO-K1 (PPARγ:RXRα:4ERPP/CHO-K1)
T1 sequence (P37231 1-477 isoform P37231-2): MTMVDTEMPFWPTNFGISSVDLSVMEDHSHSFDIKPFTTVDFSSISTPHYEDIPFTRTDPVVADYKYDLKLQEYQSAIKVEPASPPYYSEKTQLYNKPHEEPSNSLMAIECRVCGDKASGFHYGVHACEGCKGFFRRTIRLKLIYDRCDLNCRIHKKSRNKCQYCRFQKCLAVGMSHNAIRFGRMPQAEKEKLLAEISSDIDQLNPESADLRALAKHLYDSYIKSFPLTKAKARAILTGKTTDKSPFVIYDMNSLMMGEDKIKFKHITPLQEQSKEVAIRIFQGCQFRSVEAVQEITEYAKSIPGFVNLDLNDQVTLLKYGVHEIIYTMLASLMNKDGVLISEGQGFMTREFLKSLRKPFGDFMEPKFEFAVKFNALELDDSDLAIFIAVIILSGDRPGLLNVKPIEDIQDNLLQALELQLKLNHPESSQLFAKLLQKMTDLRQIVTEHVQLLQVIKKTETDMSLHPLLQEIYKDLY
T1 sequence (P19793 1-462 partner): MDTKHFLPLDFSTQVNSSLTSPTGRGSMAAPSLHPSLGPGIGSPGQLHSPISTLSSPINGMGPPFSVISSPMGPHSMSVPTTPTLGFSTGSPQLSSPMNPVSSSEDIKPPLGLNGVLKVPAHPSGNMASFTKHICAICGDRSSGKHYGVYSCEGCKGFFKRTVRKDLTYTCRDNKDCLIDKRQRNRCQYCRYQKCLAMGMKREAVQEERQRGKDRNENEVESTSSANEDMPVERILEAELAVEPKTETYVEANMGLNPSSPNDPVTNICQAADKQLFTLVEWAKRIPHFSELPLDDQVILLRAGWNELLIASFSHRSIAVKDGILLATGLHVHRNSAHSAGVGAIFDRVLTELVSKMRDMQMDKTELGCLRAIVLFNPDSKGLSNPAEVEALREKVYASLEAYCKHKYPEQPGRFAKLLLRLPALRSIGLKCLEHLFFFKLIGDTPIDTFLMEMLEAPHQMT
Summary of the method: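 CHO-K1 cells expressing PPARγ:RXRα with a 4ERPP reporter were exposed to compound for one day at 37° C in Ham F12 containing 0.1% fatty acid-free BSA, then read for luciferase. Induction rate was taken relative to untreated cells as 1, and EC50 is the concentration giving 50% of maximal induction.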

[1] = plasma glucose relative to non-administration group = 100%, read-out: hypoglycemic action (%)
[2] = plasma triglyceride relative to non-administration group = 100%, read-out: hypolipidemic action (%)

Compound	melting point	response vs control in vivo at 0.01 % (KKAy mice; [1])	response vs control in vivo at 0.01 % (KKAy mice; [2])	pEC50 (PPARγ-RXRα heterodimer)	response vs control in vivo at 0.03 % (KKAy mice; [1])	response vs control in vivo at 0.03 % (KKAy mice; [2])
CC(C)CCS(=O)(=O)NC(=O)/C=C/c1cc(OCC2CC2)nn1Cc1ccc(C(F)(F)F)cc1Cl [Example 26, (2E)-3-[1-[2-chloro-4-(trifluoromethyl)benzyl]-3-(cyclopropylmethoxy)-1H-pyrazol-5-yl]-N-[(3-methylbutyl)sulfonyl]acrylamide]	155.5 to 157.5 °C	50%	62%	8.34		
CCCCCS(=O)(=O)NC(=O)CCc1cc(C(C)C)nn1Cc1ccc(C(F)(F)F)cc1Cl [Example 96, 3-(1-[2-chloro-4-(trifluoromethyl)benzyl]-3-isopropyl-1H-pyrazol-5-yl)-N-(pentylsulfonyl)propanamide]				8.08	53%	57%
CCCCCS(=O)(=O)NC(=O)CCc1cc(OCCCC)nn1Cc1ccc(Cl)cc1Cl [Example 97, 3-[3-butoxy-1-(2,4-dichlorobenzyl)-1H-pyrazol-5-yl]-N-(pentylsulfonyl)propanamide]	104 to 105 °C	58%	64%	8.12		
CC(C)CCS(=O)(=O)NC(=O)/C=C/c1cc(OC(C)C)nn1Cc1ccc(C(F)(F)F)cc1Cl [Example 112, (2E)-3-{1-[2-chloro-4-(trifluoromethyl)benzyl]-3-isopropoxy-1H-pyrazol-5-yl}-N-[(3-methylbutyl)sulfonyl]acrylamide]		53%	70%	8.08		
CCCCOC(=O)NS(=O)(=O)CCc1cc(OCCCC)nn1Cc1ccc(Cl)cc1Cl [Example 129, butyl ({2-[3-butoxy-1-(2,4-dichlorobenzyl)-1H-pyrazol-5-yl]ethyl}sulfonyl)carbamate]	108 to 111 °C			8.00	45%	76%
CCCCCS(=O)(=O)NC(=O)/C=C/c1cc(OCC2CC2)nn1Cc1ccc(C(F)(F)F)cc1Cl [Example 151, (2E)-3-[1-[2-chloro-4-(trifluoromethyl)benzyl]-3-(cyclopropylmethoxy)-1H-pyrazol-5-yl]-N-(pentylsulfonyl)acrylamide]	148 to 151 °C	59%	73%	8.14		
CCCCCS(=O)(=O)NC(=O)/C=C/c1cc(C2CC2)nn1Cc1ccc(C(F)(F)F)cc1Cl [Example 155, (2E)-3-{1-[2-chloro-4-(trifluoromethyl)benzyl]-3-cyclopropyl-1H-pyrazol-5-yl}-N-(pentylsulfonyl)acrylamide]		70%	70%	7.92		
CCCCCS(=O)(=O)NC(=O)/C(=C/c1ccc(OCCOC)cc1Oc1ncc(C(F)(F)F)cc1Cl)CC [Example 183, (2E)-2-[2-{[3-chloro-5-(trifluoromethyl)pyridin-2-yl]oxy}-4-(2-methoxyethoxy)benzylidene]-N-(pentylsulfonyl)butanamide]	104.5 to 105.6 °C	48%	44%	8.42		
COCCOc1ccc(CCCOC(=O)NS(=O)(=O)NCCOC(C)C)c(Oc2ncc(C(F)(F)F)cc2Cl)c1 [Example 204, 3-[2-{[3-chloro-5-(trifluoromethyl)pyridin-2-yl]oxy}-4-(2-methoxyethoxy)phenyl]propyl {[(2-isopropoxyethyl)amino]sulfonyl}carbamate]		52%	36%	9.04		
CCCCCS(=O)(=O)NC(=O)C(Cc1ccc(OCCOC)cc1Oc1ncc(C(F)(F)F)cc1Cl)OC (centres unmarked) [Example 210, 3-[2-{[3-chloro-5-(trifluoromethyl)pyridin-2-yl]oxy}-4-(2-methoxyethoxy)phenyl]-2-methoxy-N-(pentylsulfonyl)propanamide]		58%	69%	8.17		
CCCCCS(=O)(=O)NC(=O)/C(C)=C/c1ccc(OCCOC)cc1Oc1ncc(C(F)(F)F)cc1Cl [Example 211, (2E)-3-[2-{[3-chloro-5-(trifluoromethyl)pyridin-2-yl]oxy}-4-(2-methoxyethoxy)phenyl]-2-methyl-N-(pentylsulfonyl)acrylamide]		49%	46%	8.28		
CCCCCNS(=O)(=O)NC(=O)CCc1ccc(OCCOC)cc1Oc1ncc(C(F)(F)F)cc1Cl [Example 214, 3-[2-{[3-chloro-5-(trifluoromethyl)pyridin-2-yl]oxy}-4-(2-methoxyethoxy)phenyl]-N-[(pentylamino)sulfonyl]propanamide]		56%	65%	8.96		
CCCCCS(=O)(=O)NC(=O)/C=C/c1ccc(OCCO)cc1Oc1ncc(C(F)(F)F)cc1Cl [Example 218, (2E)-3-[2-{[3-chloro-5-(trifluoromethyl)pyridin-2-yl]oxy}-4-(2-hydroxyethoxy)phenyl]-N-(pentylsulfonyl)acrylamide monohydrate]		81%	129%	7.10		
CCCCCS(=O)(=O)NC(=O)/C=C/c1ccc(OCC(C)(C)O)cc1Oc1ncc(C(F)(F)F)cc1Cl [Example 250, (2E)-3-[2-{[3-chloro-5-(trifluoromethyl)pyridin-2-yl]oxy}-4-(2-hydroxy-2-methylpropoxy)phenyl]-N-(pentylsulfonyl)acrylamide]		78%	121%	8.14		
CCCCCS(=O)(=O)NC(=O)C(C)(C)Cc1ccc(OCCOC)cc1Oc1ncc(C(F)(F)F)cc1Cl [Example 252, 3-[2-{[3-chloro-5-(trifluoromethyl)pyridin-2-yl]oxy}-4-(2-methoxyethoxy)phenyl]-2,2-dimethyl-N-(pentylsulfonyl)propanamide]		46%	20%	8.51		
CCCCCS(=O)(=O)NC(=O)/C=C/c1ccc(OCCOC2CC2)cc1Oc1ncc(C(F)(F)F)cc1Cl [Example 424, (2E)-3-{2-{[3-chloro-5-(trifluoromethyl)pyridin-2-yl]oxy}-4-[2-(cyclopropyloxy)ethoxy]phenyl}-N-(pentylsulfonyl)acrylamide]		70%	18%	8.21		
CC(C)OCCNS(=O)(=O)NC(=O)OCCCc1ccc(OCCO)cc1Oc1ncc(C(F)(F)F)cc1Cl [Example 439, 3-[2-{[3-chloro-5-(trifluoromethyl)pyridin-2-yl]oxy}-4-(2-hydroxyethoxy)phenyl]propyl {[(2-isopropoxyethyl)amino]sulfonyl}carbamate]		49%	34%	8.74		
CC(C)Oc1ccc(CCCOC(=O)NS(=O)(=O)NCCc2ccccn2)c(Oc2ncc(C(F)(F)F)cc2Cl)c1 [Example 444, 3-(2-{[3-chloro-5-(trifluoromethyl)pyridin-2-yl]oxy}-47 isopropoxyphenyl)propyl {[(2-pyridin-2-ylethyl)amino]sulfonyl}carbamate]		55%	52%	8.47		
